# Laboratory results: patent publication US12162890B2 (Novartis AG, priority 2015, dated 2024)
# Molecular target: HEK293 cells with stable expression of the GRIN1 gene and tetracycline-inducible expression of the GRIN2B gene (NMDA receptor, NR2B) (Homo sapiens, UniProt Q13224)
# Assay: Fluo-8 Ca2+ flux assay: reversal of Ro 25-6981-mediated suppression of the Ca2+ response to co-agonist (glutamate/glycine); also: test concentration or dose not given here
# Assay type: cell-based
# Details: reversal of the Ro 25-6981 suppression of the Ca2+ response to co-agonist (glutamate/glycine)
# HEK293 cells with stable expression of the GRIN1 gene and tetracycline-inducible expression of the GRIN2B gene (NMDA receptor, NR2B), sequence (Q13224 27-1484, other chains not shown): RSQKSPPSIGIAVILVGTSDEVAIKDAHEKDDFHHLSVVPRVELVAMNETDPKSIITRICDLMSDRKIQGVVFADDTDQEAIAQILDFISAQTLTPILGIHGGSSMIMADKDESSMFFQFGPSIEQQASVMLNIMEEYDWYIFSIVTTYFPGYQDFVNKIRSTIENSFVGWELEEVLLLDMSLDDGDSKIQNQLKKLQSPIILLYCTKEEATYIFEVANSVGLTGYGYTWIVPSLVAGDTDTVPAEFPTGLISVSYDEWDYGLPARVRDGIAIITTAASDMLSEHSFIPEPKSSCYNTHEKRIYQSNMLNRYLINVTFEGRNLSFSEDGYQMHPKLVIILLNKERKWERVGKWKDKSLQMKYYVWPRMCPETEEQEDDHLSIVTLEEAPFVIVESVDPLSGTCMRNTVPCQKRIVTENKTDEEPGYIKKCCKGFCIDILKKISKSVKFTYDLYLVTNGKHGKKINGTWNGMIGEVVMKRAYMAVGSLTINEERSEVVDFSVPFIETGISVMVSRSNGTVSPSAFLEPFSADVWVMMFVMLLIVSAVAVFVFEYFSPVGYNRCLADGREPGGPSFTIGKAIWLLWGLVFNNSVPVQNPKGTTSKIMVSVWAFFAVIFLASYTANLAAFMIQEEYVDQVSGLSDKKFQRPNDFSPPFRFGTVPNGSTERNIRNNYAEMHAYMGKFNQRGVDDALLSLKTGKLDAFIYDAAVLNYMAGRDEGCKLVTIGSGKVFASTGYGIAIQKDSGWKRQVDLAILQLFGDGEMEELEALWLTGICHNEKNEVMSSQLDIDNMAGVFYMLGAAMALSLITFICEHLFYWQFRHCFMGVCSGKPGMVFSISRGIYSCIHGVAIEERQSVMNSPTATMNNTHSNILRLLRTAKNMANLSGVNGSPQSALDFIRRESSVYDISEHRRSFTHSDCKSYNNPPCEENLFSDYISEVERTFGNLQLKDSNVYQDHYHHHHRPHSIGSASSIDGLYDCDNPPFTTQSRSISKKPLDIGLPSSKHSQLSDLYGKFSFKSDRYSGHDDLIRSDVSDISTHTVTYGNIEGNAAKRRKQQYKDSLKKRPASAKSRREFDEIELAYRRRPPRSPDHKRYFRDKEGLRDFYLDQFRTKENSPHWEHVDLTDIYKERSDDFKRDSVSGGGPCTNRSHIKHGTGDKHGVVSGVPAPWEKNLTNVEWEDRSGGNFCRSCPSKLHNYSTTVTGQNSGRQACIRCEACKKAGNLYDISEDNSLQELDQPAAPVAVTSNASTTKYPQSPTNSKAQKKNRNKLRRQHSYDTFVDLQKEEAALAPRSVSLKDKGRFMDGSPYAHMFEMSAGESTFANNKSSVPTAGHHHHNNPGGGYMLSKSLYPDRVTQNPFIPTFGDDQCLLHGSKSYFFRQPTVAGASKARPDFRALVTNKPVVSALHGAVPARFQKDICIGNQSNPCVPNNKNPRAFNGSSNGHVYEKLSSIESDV
row,Response Recovered (%),SMILES
1,1%,"O=C(Cn1cnc2csc(-c3ccc(Cl)cc3)c2c1=O)N1CCOCC1 [Example 354, 5-(4-chlorophenyl)-3-(2-morpholino-2-oxoethyl)thieno[3,4-d]pyrimidin-4(3H)-one]"
2,32%,"O=C(Cn1cc(-c2ccncc2)c2scc(-c3ccc(Cl)c(C(F)(F)F)c3)c2c1=O)N1CCCC1 [Example 103, 3-(4-chloro-3-(trifluoromethyl)phenyl)-5-(2-oxo-2-(pyrrolidin-1-yl)ethyl)-7-(pyridin-4-yl)thieno[3,2-c]pyridin-4(5H)-one]"
3,29%,"CCC1(F)CN(C(=O)Cn2cc(C)n3ccc(-c4cnc(Cl)c(Cl)c4)c3c2=O)C1 [Example 422, 8-(5,6-dichloropyridin-3-yl)-2-(2-(3-ethyl-3-fluoroazetidin-1-yl)-2-oxoethyl)-4-methylpyrrolo[1,2-a]pyrazin-1(2H)-one]"
4,88%,"CCC1(F)CN(C(=O)Cn2ccc3c(c(-c4cnc(Cl)c(Cl)c4)cn3C3CC3)c2=O)C1 [Example 294, 1-cyclopropyl-3-(5,6-dichloropyridin-3-yl)-5-(2-(3-ethyl-3-fluoroazetidin-1-yl)-2-oxoethyl)-1,5-dihydro-4H-pyrrolo[3,2-c]pyridin-4-one]"
5,3%,"O=C(Cn1cnc2cccc(-c3ccc(Cl)cc3)c2c1=O)N1CCCC1C(F)(F)F (stereo not drawn) [Example 297, 5-(4-chlorophenyl)-3-(2-oxo-2-(2-(trifluoromethyl)pyrrolidin-1-yl)ethyl)quinazolin-4(3H)-one]"
6,70%,"O=C(Cn1ccc2[nH]cc(-c3ccc(Cl)c(Cl)c3)c2c1=O)N1CCCC1 [Example 217, 3-(3,4-dichlorophenyl)-5-(2-oxo-2-(pyrrolidin-1-yl)ethyl)-1H-pyrrolo[3,2-c]pyridin-4(5H)-one]"
7,64%,"O=C(Cn1cnc2c(c(-c3ccc(Cl)c(C(F)(F)F)c3)cn2CCF)c1=O)N1CCCC1 [Example 149, 5-(4-chloro-3-(trifluoromethyl)phenyl)-7-(2-fluoroethyl)-3-(2-oxo-2-(pyrrolidin-1-yl)ethyl)-3H-pyrrolo[2,3-d]pyrimidin-4(7H)-one]"
8,48%,"O=C(Cn1cnc2[nH]cc(-c3ccc(Cl)c(F)c3)c2c1=O)N1CCCC1 [Example 164, 5-(4-chloro-3-fluorophenyl)-3-(2-oxo-2-(pyrrolidin-1-yl)ethyl)-3H-pyrrolo[2,3-d]pyrimidin-4(7H)-one]"
9,1%,"COC1CN(C(=O)Cn2cnc3ccn(-c4ccc(Cl)cc4)c3c2=O)C1 [Example 372, 5-(4-chlorophenyl)-3-(2-(3-methoxyazetidin-1-yl)-2-oxoethyl)-3H-pyrrolo[3,2-d]pyrimidin-4(5H)-one]"
10,4%,"O=C(Cn1cnc2ccn(-c3ccc(Cl)cc3)c2c1=O)N1CCC1 [Example 370, 3-(2-(azetidin-1-yl)-2-oxoethyl)-5-(4-chlorophenyl)-3H-pyrrolo[3,2-d]pyrimidin-4(5H)-one]"
11,61%,Cn1cc(-c2ccc(F)c(C(F)(F)F)c2)c2c(=O)n(CC(=O)N3CCC(F)C3)ccc21 (stereo not drawn) [Example 251]
12,7.3%,"O=C(Cn1ccc2scc(-c3ccc(F)c(Cl)c3)c2c1=O)NCC(F)(F)F [Example 56, 2-(3-(3-chloro-4-fluorophenyl)-4-oxothieno[3,2-c]pyridin-5(4H)-yl)-N-(2,2,2-trifluoroethyl)aceta-mide]"
13,150%,"CC1(F)CN(C(=O)Cn2ccc3scc(-c4ccc(Cl)c(Cl)c4)c3c2=O)C1 [Example 42, 3-(3,4-dichlorophenyl)-5-(2-(3-fluoro-3-methylazetidin-1-yl)-2-oxoethyl)thieno[3,2-c]pyridin-4(5H)-one]"
14,140%,"CC1(F)CN(C(=O)Cn2ccc3c(c(-c4ccc(F)c(Cl)c4)cn3C3CC3)c2=O)C1 [Example 285, 3-(3-chloro-4-fluorophenyl)-1-cyclopropyl-5-(2-(3-fluoro-3-methylazetidin-1-yl)-2-oxoethyl)-1H-pyrrolo[3,2-c]pyridin-4(5H)-one]"
15,130%,"Cn1cc(-n2cc(-c3ccc(F)c(Cl)c3)c3c(=O)n(CC(=O)N4CC(C)(F)C4)ccc32)cn1 [Example 286, 3-(3-chloro-4-fluorophenyl)-5-(2-(3-fluoro-3-methylazetidin-1-yl)-2-oxoethyl)-1-(1-methyl-1H-pyrazol-4-yl)-1H-pyrrolo[3,2-c]pyridin-4(5H)-one]"
16,13%,"O=C(Cn1ccc2scc(-c3ccc(Cl)c(Cl)c3)c2c1=O)N1CC2(COC2)C1 [Example 68, 3-(3,4-dichlorophenyl)-5-(2-oxo-2-(2-oxa-6-azaspiro[3.3]heptan-6-yl)ethyl)thieno[3,2-c]pyridin-4(5H)-one]"
17,77%,"O=C(Cn1cc(CN2CCC2)c2scc(-c3ccc(F)c(C(F)(F)F)c3)c2c1=O)N1CCC(F)C1 (stereo not drawn) [Example 118, 7-(azetidin-1-ylmethyl)-3-(4-fluoro-3-(trifluoromethyl)phenyl)-5-(2-(3-fluoropyrrolidin-1-yl)-2-oxoethyl)thieno[3,2-c]pyridin-4(5H)-one]"
18,13%,"O=C(Cn1ccc2scc(-c3ccc(F)c(Cl)c3)c2c1=O)N1CC2C(C1)C2(F)F (stereo not drawn) [Example 65, 3-(3-chloro-4-fluorophenyl)-5-(2-(6,6-difluoro-3-azabicyclo[3.1.0]hex-an-3-yl)-2-oxoethyl)thieno[3,2-c]pyridin-4(5H)-one]"
19,3%,"O=C(Cn1cnc2ccn(-c3ccc(Cl)cc3)c2c1=O)N1CCC(F)(F)CC1 [Example 373, 5-(4-chlorophenyl)-3-(2-(4,4-difluoropiperidin-1-yl)-2-oxoethyl)-3H-pyrrolo[3,2-d]pyrimidin-4(5H)-one]"
20,35%,"Cc1cn(CC(=O)N2CCC(F)C2)c(=O)n2c(-c3ccc(F)c(C(F)(F)F)c3)cnc12 (stereo not drawn) [Example 454, 3-(4-fluoro-3-(trifluoromethyl)phenyl)-6-(2-(3-fluoropyrrolidin-1-yl)-2-oxoethyl)-8-methylimidazo[1,2-c]pyrimidin-5(6H)-one]"
21,51%,"Cc1cc(-c2ccn3ccn(CC(=O)N4CC(C)(F)C4)c(=O)c23)cnc1Cl [Example 408, 8-(6-chloro-5-methylpyridin-3-yl)-2-(2-(3-fluoro-3-methylazetidin-1-yl)-2-oxoethyl)pyrrolo[1,2-a]pyrazin-1(2H)-one]"
22,4%,"O=C(Cn1cnc2onc(-c3ccc(Cl)cc3)c2c1=O)N1CC(F)(F)C1 [Example 385, 3-(4-chlorophenyl)-5-(2-(3,3-difluoroazetidin-1-yl)-2-oxoethyl)isoxazolo[5,4-d]pyrimidin-4(5H)-one]"
23,63%,"O=C(Cn1cnc2[nH]cc(-c3ccc(C(F)(F)F)c(Cl)c3)c2c1=O)N1CCC(F)C1 (stereo not drawn) [Example 176, 5-(3-chloro-4-(trifluoromethyl)phenyl)-3-(2-(3-fluoropyrrolidin-1-yl)-2-oxoethyl)-3H-pyrrolo[2,3-d]pyrimidin-4(7H)-one]"
24,19%,"O=C(Cn1ccn2c(C3CC3)nc(-c3ccc(F)c(Cl)c3)c2c1=O)N1CCC(F)C1 (stereo not drawn) [Example 432, 1-(3-chloro-4-fluorophenyl)-3-cyclopropyl-7-(2-(3-fluoropyrrolidin-1-yl)-2-oxoethyl)imidazo[1,5-a]pyrazin-8(7H)-one]"
25,70%,"CN(C)Cc1cn(CC(=O)N2CCC(F)C2)c(=O)c2c(-c3ccc(F)c(C(F)(F)F)c3)csc12 (stereo not drawn) [Example 116, 7-((dimethylamino)methyl)-3-(4-fluoro-3-(trifluoromethyl)phenyl)-5-(2-(3-fluoropyrrolidin-1-yl)-2-oxoethyl)thieno[3,2-c]pyridin-4(5H)-one]"
26,26%,"O=C(Cn1ccc2scc(-c3ccc(F)c(Cl)c3)c2c1=O)N1CCC1 [Example 46, 5-(2-(azetidin-1-yl)-2-oxoethyl)-3-(3-chloro-4-fluorophenyl)thieno[3,2-c]pyridin-4(5H)-one]"
27,77%,"O=C(Cn1cnc2[nH]cc(-c3ccc(Cl)c(Cl)c3)c2c1=O)N1CCC(F)C1 (stereo not drawn) [Example 175, 5-(3,4-dichlorophenyl)-3-(2-(3-fluoropyrrolidin-1-yl)-2-oxoethyl)-3H-pyrrolo[2,3-d]pyrimidin-4(7H)-one]"
28,24%,"Cn1cc(-c2ccc(Cl)cc2)c2c(=O)n(CC(=O)N3CC(F)(F)C3)cnc21 [Example 155, 5-(4-chlorophenyl)-3-(2-(3,3-difluoroazetidin-1-yl)-2-oxoethyl)-7-methyl-3H-pyrrolo[2,3-d]pyrimidin-4(7H)-one]"
29,95%,"O=C(Cn1ccc2scc(-c3ccc(Cl)c(C(F)(F)F)c3)c2c1=O)N1CC[C@H](F)C1 [Example 15, (S)-3-(4-chloro-3-(trifluoromethyl)phenyl)-5-(2-(3-fluoropyrrolidin-1-yl)-2-oxoethyl)thieno[3,2-c]pyridin-4(5H)-one]"
30,35%,"CC1(F)CN(C(=O)Cn2ccc3scc(-c4cnc(F)c(Cl)c4)c3c2=O)C1 [Example 19, 3-(5-chloro-6-fluoropyridin-3-yl)-5-(2-(3-fluoro-3-methylazetidin-1-yl)-2-oxoethyl)thieno[3,2-c]pyridin-4(5H)-one]"

row,SMILES,Response Recovered (%)
1,"NC(=O)Cn1ccc2[nH]cc(-c3ccc(F)c(Cl)c3)c2c1=O [Example 255, 2-(3-(3-chloro-4-fluorophenyl)-4-oxo-1H-pyrrolo[3,2-c]pyridin-5(4H)-yl)acetamide]",−1%
2,"O=C(Cn1cnc2occ(-c3ccc(Cl)cc3)c2c1=O)N1CCC(C(F)(F)F)C1 (stereo not drawn) [Example 387, 5-(4-chlorophenyl)-3-(2-oxo-2-(3-(trifluoromethyl)pyrrolidin-1-yl)ethyl)furo[2,3-d]pyrimidin-4(3H)-one]",7%
3,"O=C(Cn1ccc2ncc(-c3ccc(F)c(C(F)(F)F)c3)n2c1=O)N1CCC(F)C1 (stereo not drawn) [Example 448, 3-(4-fluoro-3-(trifluoromethyl)phenyl)-6-(2-(3-fluoropyrrolidin-1-yl)-2-oxoethyl)imidazo[1,2-c]pyrimidin-5(6H)-one]",14%
